Several values for one entry are separate records, joined by “and”; a condition that tells them apart may be missing. Identical values can stand only once. Residues, ends and D or L forms follow the SMILES beside them. *: point of attachment. Cbz = O=C(OCc1ccccc1)*; OtBu = CC(C)(C)O*

This note sets out measurements from PMC12259270, “Sensory neuron–expressed FGF13 controls nociceptive signaling in diabetic neuropathy models” (The Journal of Clinical Investigation, 2025).

Experiment [1] concerns C57BL/6 mice. The experiment in a line: Capsaicin-induced mechanical hypersensitivity (von Frey). It is filed as in vivo, mouse. Further details: LVF Mean / HVF Mean / MECHANICAL LVF / MECHANICAL HVF: unit not given here. The conditions noted are these: Cap + Bup 7 mg/mL. The text has this:
(§1) FGF13 is a neuronal gene ubiquitously transcribed in DRG neuronal subtypes ([43]–[46]). To investigate neuronal subtype enrichment of the FGF13 transcript, we examined a gene panel including FGF13, SCN9A, and several marker genes in mouse single-cell transcriptomic data (Supplemental Figure 10) ([43]–[46]). […] Critically, putative silent nociceptors marked by somatostatin (SST), and the nicotinic cholinergic receptor α-3 subunit (CHRNA3) contribute to development of inflammatory mechanical hyperalgesia ([47]). […] We next determined if PW164 modulation of the FGF13/Nav1.7 complex could suppress nociceptive behaviors in WT mice. We tested whether intraplantar (i.pl.) injection (5 μL) of PW164 altered hind paw withdrawal in response to low or high intensity von Frey filament (LVF or HVF, respectively) mechanical stimulation (Figure 3A). […] Next, we evaluated PW164’s effect on mechanical and thermal hindpaw sensitivity in capsaicin-induced nociceptive hypersensitivity models. […] Next, we performed in vivo target validation in WT mice that received an intrathecal (i.t.) injection in L5 of AAV2-shFGF13 (6 μL, viral titers 1 × 10^12 vector genomes (vg)/mL); a control group received an equal number of AAV2-shCTRL particles (Figure 3C).
(§2) Experiments were performed on 6- to 12-week-old male C57BL/6 mice (The Jackson Laboratory, Bar Harbor, ME) housed in the AAALAC-accredited facility at the University of Texas Medical Branch. Mice were group-housed with up to 5 mice per cage on a 12-to-12-hour light–dark cycle and had access to water and food ad libitum. All protocols were approved by the Institutional Animal Care and Use Committee (IACUC) at the University of Texas Medical Branch and in accordance with the National Institutes of Health (NIH) guidelines.
(§3) PW164 and ZL192 were dissolved in DMSO and saline in a ratio of 1:10. 0.1% capsaicin (10% ethanol, 10% Tween-20 in saline; Sigma-Aldrich). All the compounds were injected at the center of the hind paw. The control group received a DMSO-saline mixture. […]
Bupivacaine was prepared from a 1:2 dilution with sterile 0.9% saline and locally injected in the center of the paw at 7 mg/ml.
(§4) AAV2 viral particles packaged by the University of North Carolina Gene Therapy Core Facility (viral titer ranging […]
Before intrathecal injections in the lumbar region, mice were maintained in an anesthetizing box with 2% isoflurane to induce unconsciousness. Six microliters of viral vector were gently injected into the CSF through a 30-gauge needle with a Hamilton syringe in the lumbar area between vertebrae L4 and L5 by gently gripping the iliac crest of the mouse and inserting the needle with an angle of 45°. The correct procedure was confirmed by the mouse’s tail reflexiv e flick.
(§5) Assessment of mechanical sensitivity
Mechanical sensitivity was assessed using von Frey filaments (VFF 0.1g and 1.0 g force) in mice that were either naïve or received intraplantar (i.p.) injection of capsaicin. VFFs were applied at the injection site (capsaicin or […]

In experiment [2] the test system is C57BL/6 mice. The experiment in a line: Mechanical sensitivity (von Frey, LVF/HVF) after intraplantar injection, mice without capsaicin. It is filed as in vivo, mouse. Further details: key to LVF Mean / HVF Mean: % withdrawals from 10 consecutive von Frey stimulations. The conditions noted are these: Bup 7 mg/mL, without capsaicin. As to the method: as §2, §3, §5
Mechanical sensitivity was assessed using von Frey filaments (VFF 0.1g and 1.0 g force) in mice that were either naïve or received intraplantar (i.p.) injection of capsaicin. VFFs were applied at the injection site (capsaicin or drug unilateral intraderma l injection at the center of the hind paw using a 30 -G needle). VFF of 1.0 g force, which evokes a 40–60% withdrawal response in the naïve condition, was used to detect hyperalgesia, and VFF of 0.1 g […]
mechanical sensitivity was expressed as % withdrawals from 10 consecutive stimulations. […]

The test system of experiment [3] is FGF13 and Nav1.7 colocalization in hIPSC-derived sensory neurons. As to the kind of experiment: Immunocytochemistry, FGF13 and Nav1.7 colocalization in RealDRG. The class given is cell-based, human. The conditions noted are these: Capsaicin, N 39. As to the method:
After treatment, coverslips containing hIPSC-derived sensory neurons were fixed with 4% PFA/4% sucrose for 15 minutes, permeabilized for 5 minutes using 0.1% Triton X-100 in PBS and blocked with 10% Normal Goat Serum (ThermoFisher Scientific) for 30 minutes. Cells were stained using primary antibodies ms IgG1 Nav1.7 […]
Tubulin (Abcam, catalog # ab18207; 1:2000) overnight at 4∘C in 3% BSA. Isotype specific secondary antibodies ms IgG1 Alexa 568 (Life Technologies, catalog # A-21124; 1:200), ms IgG2a Alexa 647 (Life Technologies, […]
applied for 2 hours. After washing, cell membranes were labeled using CellBrite Cytoplasmic Membrane Dye (Biotium) according to manufacturer directions. After final washing, coverslips were mounted using ProLong Gold Antifade Mountant (ThermoFisher). hIPSC-derived sensory neurons were fixed at day 14 in buffered formalin (10 wt%/vol%, Fisher Scientific 23-305-510) for 10 minutes, permeabilized in DPBS plus Triton X-100 (0.2 vol%/vol%, MilliporeSigma, T8787-100ML), blocked in DPBS plus bovine serum albumin (1 wt%/vol%, MilliporeSigma A3059-100G) and Tween-20 (0.1 vol% MilliporeSigma P1379) for 2 hours, and incubated with primary antibodies overnight. Cultures were washed twice with blocking solution and incubated 1 hour with secondary antibodies. 4′,6-diamidino-2-phenylindole dilactate (DAPI, Thermo Fisher D3571) was added for 10 minutes before washing three times in DPBS. Antibodies used include: TUJ1 (1:250, MilliporeSigma MAB1637), […]
and Alexa Fluor 555 Donkey anti-Rabbit (1:500, Thermo Fisher Scientific A-31572). Negative controls included

The test system of experiment [4] is C57BL/6 mice. The experiment in a line: Capsaicin-induced thermal hypersensitivity (Hargreaves). The conditions noted are these: Figure 3 B lower block (Vehicle vs PW 164), individual animals 1-20. It is filed as in vivo, mouse.
Excerpt: as §1, §2, §3, §4
Before intrathecal injections in the lumbar region, mice were maintained in an anesthetizing box with 2% isoflurane to induce unconsciousness. Six microliters of viral vector were gently injected into the CSF through a 30-gauge needle with a Hamilton syringe in the lumbar area between vertebrae L4 and L5 by gently gripping the iliac crest of the mouse and inserting the needle with an angle of 45°. The correct procedure was confirmed by the mouse’s tail reflexiv e flick. […]

The target in experiment [5] is T1, FGF13 (protein used in surface plasmon resonance) (UniProt Q92913-2 1-192).
T1 construct: Fibroblast growth factor 13; also called fibroblast growth factor 13
T1 sequence (looked up): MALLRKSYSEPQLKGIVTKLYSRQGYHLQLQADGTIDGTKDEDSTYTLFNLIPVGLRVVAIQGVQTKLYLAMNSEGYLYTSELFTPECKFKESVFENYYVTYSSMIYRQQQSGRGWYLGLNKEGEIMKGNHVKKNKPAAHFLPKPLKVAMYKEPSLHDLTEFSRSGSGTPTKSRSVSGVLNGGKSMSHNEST
As to the kind of experiment: SPR; cell-free; FGF13 with Nav1.7 CTD, no compound. The following applies: both partners purified. In general terms: Surface plasmon resonance follows binding to a sensor surface in real time, without labels.

Take `CCCCN1CCCCC1C(=O)Nc1c(C)cccc1C` (racemic) [Bup]: the “HVF Mean” value with C57BL/6 mice [1] (Time (h) 0) came to 52; in the experiment with C57BL/6 mice [1] (Time (h) 0.5), 100; in the experiment with C57BL/6 mice [1] (Time (h) 0.75), 6; in the experiment on C57BL/6 mice [1] (Time (h) 1) it was 58; in the experiment with C57BL/6 mice [1] (Time (h) 1.5), 98; with C57BL/6 mice [1] (Time (h) 2), 100. The “HVF Mean” value came out at 52 in the experiment on C57BL/6 mice [2] (Time (h) 0); 8 in the experiment on C57BL/6 mice [2] (Time (h) 0.5); 58 in the experiment on C57BL/6 mice [2] (Time (h) 1); 54 with C57BL/6 mice [2] (Time (h) 1.5); 54 with C57BL/6 mice [2] (Time (h) 2). For the same molecule, the “LVF Mean” value was determined as 0 in the experiment with C57BL/6 mice [1] (Time (h) 0); 66 in the experiment on C57BL/6 mice [1] (Time (h) 0.5); 0 in the experiment with C57BL/6 mice [1] (Time (h) 0.75); 0 in the experiment on C57BL/6 mice [1] (Time (h) 1); 22 in the experiment with C57BL/6 mice [1] (Time (h) 1.5); 52 with C57BL/6 mice [1] (Time (h) 2).

For `COc1cc(CNC(=O)CCCC/C=C/C(C)C)ccc1O` [Capsaicin], the “Figure S6C, Mean” value is recorded as 236.646 in experiment [3] (Distance 7.1166 microns); 412.139 in experiment [3] (Distance 7.2484 microns); 777.284 in experiment [3] (Distance 7.3801 microns); 1294.71 in experiment [3] (Distance 7.5119 microns); 1747.86 in experiment [3] (Distance 7.6437 microns); 1996.82 in experiment [3] (Distance 7.7755 microns). Also, the “Figure S6C, Mean” value is 2041.85 in experiment [3] (Distance 7.9073 microns); 2010.31 in experiment [3] (Distance 8.0391 microns); 1934.86 in experiment [3] (Distance 8.1709 microns); 1848.17 in experiment [3] (Distance 8.3027 microns); 1793.9 in experiment [3] (Distance 8.4344 microns); 1740.61 in experiment [3] (Distance 8.5662 microns). Further, the “Figure S6C, Mean” value in experiment [3] (Distance 8.698 microns) is reported as 1651.29; in experiment [3] (Distance 8.8298 microns), 1564.27; in experiment [3] (Distance 8.9616 microns), 1524.73; in experiment [3] (Distance 9.0934 microns) it was 1474.75.

On to `COC(=O)[C@@H](NC(=O)[C@H](CCC(=O)OC(C)(C)C)NC(=O)[C@H](CC(C)C)NC(=O)[C@@H]1CCCN1C(=O)OCc1ccccc1)C(C)C` [PW 164] (Cbz-PLE(OtBu)V-OMe), for which the “Paw withdrawal latency” value in the experiment with C57BL/6 mice [4] (Time (h) 0.5) is 6.8 s and 5.5 s (2×) and 2.93 s and 6.4 s and 5.33 s and 6.3 s and 4.8 s and 4.23 s and 4.87 s and 3.47 s and 5.6 s and 4.1 s and 4.4 s and 2.87 s and 8.3 s and 5.93 s and 5 s and 4.2 s and 6.1 s; in the experiment with C57BL/6 mice [4] (Time (h) 1), 11.43 s and 10.43 s and 13.57 s and 12.1 s and 12.5 s and 12.33 s and 11.6 s and 11.33 s and 13.2 s and 15.4 s and 16 s and 12.63 s and 16.3 s and 11.83 s and 17.37 s and 20 s and 12.8 s and 12.17 s and 18.37 s and 16.47 s; in the experiment with C57BL/6 mice [4] (Time (h) 1.5), 12.6 s and 12.77 s and 10.5 s and 11.3 s and 13.4 s and 7.9 s and 8 s and 9.27 s and 11.73 s and 9.97 s and 16.43 s and 14.37 s and 15.37 s and 12.23 s and 13.13 s and 18.63 s and 15.2 s and 17.17 s and 10.23 s and 9.23 s; in the experiment on C57BL/6 mice [4] (Time (h) 2.5), 12.63 s and 12.73 s and 10.73 s and 10.97 s and 13.83 s and 8.87 s and 8.63 s and 9.6 s and 15.4 s and 19.5667 s and 15.7667 s and 13.6 s and 14.9333 s (2×) and 14.7333 s and 11.4667 s and 11.1333 s and 10.5667 s and 15.1 s and 13.2 s; with C57BL/6 mice [4] (Time (h) BN (baseline)), 12.77 s and 12 s and 12.53 s and 10.8 s and 11.1 s and 12.43 s and 10.77 s (2×) and 12.33 s (2×) and 12.47 s (2×) and 14.53 s and 12.9 s and 11.27 s (2×) and 13.5 s and 11.07 s and 12.6 s and 10.67 s.

B1: Nav1.7 CTD (fragment used in surface plasmon resonance) (domain or fragment)
chain: QEDVSATVIQRAYRRYRLRQNVK
modifications: synthetic peptide from supplementary SPR methods (stated as residues 1876-1899, 23 aa); used unconjugated as analyte over immobilized FGF13, and biotinylated (biotin position not stated) when …
Turning to B1, in experiment [5], binding was put at a Kd of 75 ± 3 nM.
